The record followed here is PubChem BioAssay (NCI).

Structures are written as SMILES.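 A five-concentration, 48-hour dose response in 96-well plates underlies each endpoint, interpolated linearly between surrounding concentrations. Here, GI50 denotes the concentration required for 50% inhibition of growth. TGI is the concentration that stops growth completely.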

Among the test systems are A549 NSCLC; UO-31 renal; MCF7 breast; HOP-92 NSCLC; ACHN renal; SF-268 CNS; SF-539 CNS; MALME-3M melanoma; TK-10 renal; SNB-19 CNS.
What all share (test): inhibition of tumour cell growth, NCI panel, 48 h

Consider `COc1ccc2c(c1)N(Cc1ccc(Cl)cc1)CCC2N1CCCC1=O` (stereo not given), for which the GI50 is 4.48 µM with A549 NSCLC; 1790 nM in the test with UO-31 renal; 3.5 µM with MCF7 breast; 2750 nM in the test on HOP-92 NSCLC; 4.85 µM in the test with ACHN renal; 5.41 µM in the test on SF-268 CNS. The GI50 in the test on SF-539 CNS was 4.94 µM; in the test with MALME-3M melanoma, 3.99 µM; in the test on TK-10 renal it was 6.98 µM; in the test on SNB-19 CNS, 4.3 µM. Further, the TGI with A549 NSCLC was 51.5 µM; in the test on UO-31 renal it was 14.6 µM; in the test on MCF7 breast, 25.5 µM; in the test on HOP-92 NSCLC it was 20.5 µM; in the test on ACHN renal, 88.2 µM; in the test with SF-268 CNS, more than 100 µM. Moreover, the TGI with SF-539 CNS was found to be 69.3 µM; in the test with MALME-3M melanoma it was 27.2 µM; with TK-10 renal, 60.9 µM; in the test on SNB-19 CNS it was 51.7 µM.

With `CC(=O)OCC1OC(N2C(=O)NC(=O)C3C=C4CCCCC4=CC32)CC1OC(C)=O` (stereo not given), the TGI with A549 NSCLC, with UO-31 renal, in the test with MCF7 breast, in the test with HOP-92 NSCLC, in the test with ACHN renal and with SF-268 CNS was more than 100 µM throughout. For the same compound, the TGI with SF-539 CNS, in the test with MALME-3M melanoma, in the test on TK-10 renal and in the test on SNB-19 CNS was more than 100 µM throughout.

Regarding `Cn1c2ccc(F)cc2c2ccc3c(c21)C(=O)C=CC3=O`, the TGI in the test with A549 NSCLC was more than 100 µM; in the test on UO-31 renal it was 14.9 µM; in the test with MCF7 breast it was 16.5 µM; in the test with HOP-92 NSCLC, 15.5 µM; with ACHN renal, 13.7 µM; in the test on SF-268 CNS, 58.2 µM. The TGI in the test with SF-539 CNS is 35.8 µM; in the test with MALME-3M melanoma it was 23.2 µM; in the test with TK-10 renal it was 13.7 µM; in the test with SNB-19 CNS, more than 100 µM.

Take `CNC(=O)N(CCC#N)CCN(C(=O)NC)c1ccccc1`: the TGI with A549 NSCLC, in the test with UO-31 renal, with MCF7 breast, in the test with HOP-92 NSCLC, in the test on ACHN renal and in the test on SF-268 CNS was more than 100 µM in each case. Further, the TGI in the test with SF-539 CNS, in the test on MALME-3M melanoma, with TK-10 renal and in the test with SNB-19 CNS was more than 100 µM in each case.

For `COc1ccccc1NC(=S)N=Nc1c(O)[nH]c2ccccc12`, the TGI is more than 100 µM in the test on A549 NSCLC; more than 100 µM in the test with UO-31 renal; more than 100 µM in the test on MCF7 breast; more than 100 µM in the test on HOP-92 NSCLC; more than 100 µM in the test with ACHN renal; 13.5 µM with SF-268 CNS. Also, the TGI with SF-539 CNS, in the test with MALME-3M melanoma, in the test on TK-10 renal and with SNB-19 CNS was more than 100 µM each time.

Consider `CC(=O)O[C@H]1C(=O)[C@@]2(C)[C@H]([C@H](OC(=O)c3ccccc3)[C@]3(O)C[C@H](OC(=O)[C@H](O)[C@@H](NC(=O)c4ccccc4)c4ccc5ccccc5c4)C(C)=C1C3(C)C)[C@]1(OC(C)=O)CO[C@@H]1C[C@@H]2O`, for which the TGI is more than 42.1 µM with A549 NSCLC; more than 50 µM in the test with UO-31 renal; 0.879 µM in the test on MCF7 breast; more than 14 µM in the test with HOP-92 NSCLC; more than 50 µM with ACHN renal; more than 50 µM with SF-268 CNS. In addition, the TGI in the test with SF-539 CNS is 0.152 µM; in the test on MALME-3M melanoma, 14.7 µM; in the test with TK-10 renal it was 18.6 µM; in the test on SNB-19 CNS, more than 31.8 µM.

Take `CCOC(=O)/C=C(/C(=O)OCC)n1cc(C)c(=O)n(Cc2cnnn2COCCOC(C)=O)c1=O`: the TGI in the test on A549 NSCLC was more than 84.2 µM; with UO-31 renal it was 30.4 µM; in the test on MCF7 breast, 36 µM; in the test on HOP-92 NSCLC, 8.22 µM; in the test on ACHN renal it was 16.5 µM; in the test on SF-268 CNS, 42.5 µM. Moreover, the TGI was 19.4 µM in the test with SF-539 CNS, 13.3 µM in the test on MALME-3M melanoma, 12.3 µM in the test on TK-10 renal and more than 100 µM with SNB-19 CNS.

In the case of `O=C(CCBr)N1CCN(C(=O)CCBr)CC1`, the TGI in the test with A549 NSCLC is 140 µM; in the test on UO-31 renal, 293 µM; with MCF7 breast, 215 µM; in the test with HOP-92 NSCLC, 284 µM; in the test on ACHN renal, 316 µM; in the test on SF-268 CNS, 153 µM. The TGI in the test with SF-539 CNS was determined as 168 µM; with MALME-3M melanoma it was 206 µM; with TK-10 renal it was 488 µM; with SNB-19 CNS, 198 µM.

Regarding `O=C1c2cc(I)ccc2N2CCN=C2N1Cc1ccccc1`, the TGI in the test on A549 NSCLC was more than 100 µM; in the test on UO-31 renal, more than 100 µM; in the test on MCF7 breast it was more than 100 µM; in the test with HOP-92 NSCLC, 80.1 µM; in the test with ACHN renal it was more than 100 µM; with SF-268 CNS, more than 100 µM. The TGI in the test with SF-539 CNS, in the test with MALME-3M melanoma, in the test on TK-10 renal and in the test on SNB-19 CNS was more than 100 µM each time.

With `N[C@H]1c2c(Br)sc(Br)c2C(=O)[C@H]1O`, the TGI in the test with A549 NSCLC was 70.1 µM; in the test with UO-31 renal it was 47.2 µM; in the test on MCF7 breast it was 34.8 µM; in the test with HOP-92 NSCLC, 38.9 µM; in the test on ACHN renal, more than 64.6 µM; with SF-268 CNS, more than 68.1 µM. For the same compound, the TGI in the test on SF-539 CNS is 36 µM; with MALME-3M melanoma it was 29.6 µM; with TK-10 renal it was more than 100 µM; with SNB-19 CNS, 55.5 µM.

Consider `CC(C)(C)COC(=O)C(C)(C)NC(=O)C(CC(=O)OCc1ccccc1)NC(=O)OCc1ccccc1` (stereo not given), for which the TGI was more than 100 µM in the test on A549 NSCLC; 70.7 µM with UO-31 renal; more than 100 µM in the test with MCF7 breast; more than 100 µM with HOP-92 NSCLC; more than 100 µM in the test on ACHN renal; more than 100 µM with SF-268 CNS. Also, the TGI in the test on SF-539 CNS was more than 100 µM; with MALME-3M melanoma, 81.3 µM; in the test on TK-10 renal it was 78.7 µM; in the test on SNB-19 CNS, 75.7 µM.
